# Tests used:
# psoriasis [1] = conditions: cited from earlier work
# [2] = human, in vivo
# Method: (§1) The efficacy and tolerability of dexrazoxane in patients with refractory psoriasis was assessed in a clinical study.
# (§2) After screening, eligible patients received 500 mg of Cardioxane® by intravenous infusion on each of two consecutive days. They were reviewed 7 and 14 days after the first day of treatment. The patients received the second cycle of treatment, which consisted of either 500 mg Cardioxane® by intravenous infusion, on each of two consecutive days (days 15 and 16, in this case), if a complete response had occurred, or 1000 mg Cardioxane® by intravenous infusion, on each of two consecutive days (days 15 and 16, in this case), if an incomplete response had occurred.
# (§3) A third cycle of treatment was given after the same interval (days 29 and 30, in this case).
# This neutropenia disappeared after another week, and the counts were normal from then on. All other patients had normal white blood cell counts. The assessment of toxicity was according to the WHO criteria: grade 0 (non-toxic, a count of more than 4×10E9 leukocytes per liter), grade 1 (mild) to grade 4 (most severe).
# psoriasis [3] = assay: Clinical trial case reports: Cardioxane intravenous drip infusion in individual psoriasis patients (Examples 1-3); format: in vivo, human
# Excerpt: The disease started after mental stress (loss of near person) with a rash on the hairy part of the head. From the very onset of the disease the patient received intensive treatment with vitamins B12, B6, B2, and calcium. They had artificial hyperthermia with pyrogenal injections, methotrexate, various ointments (e.g. salicylic ointment) under a dermatologist's observation at a specialised clinic. In spite of the treatment the psoriatic rash was spreading over the trunk, upper and lower extremities and it was accompanied by a marked general itch. The patient had practically no remissions. Concurrent diseases were grade II hypertension and chronic cholecystopancreatitis.
# At the first examination the patient complained about itching all over the body (resulting in insomnia) and pain in the large joints (mainly knees). The skin on the back, buttocks, chest and arms was covered with a erythematous papular and pustular rash with a white coating (desquamation). A similar though less intense rash was seen on the legs. The patient's general status, the haematological and biochemical profiles were within normal.
# On the first and the second day of the treatment cycle the patient received the first doses of Cardioxane® (dexrazoxane.HCl) at 500 mg each day by intravenous drip infusion. […] The itch practically disappeared after the next dose of Cardioxane® therapy at 1000 mg on day 16. […] The patient slept well for the first time in a long disease period. The effect was still preserved at the examination on day 29 and day 30 when the patient was given the last two injections of Cardioxane® at 1500 mg each.
# This patient had suffered from generalised psoriasis for 25 years. The rash first appeared on the head and the right upper limb to spread over the trunk and upper limbs later. The patient had received therapies similar to the patient described in Example 1. In addition they received UV therapy, peloids, sulfurated hydrogen baths, but without lasting effect. The patient had no concurrent illness except asthenia, sinus arrhythmia and left ventricular hypertrophy. The skin on the back, lumbar region and shoulders was covered with merged erythematous papular, bullar and desquamating lesions. The rash on the lateral chest walls and on the lower limbs was mainly erythematous and less marked. The skin lesions covered about 50% of the body surface.
# The patient was given 6 intravenous drip injections with Cardioxane® according to the following schedule:
# On day 1 and day 2 each 500 mg Cardioxane®,
# on day 15 and day 16 each 1000 mg Cardioxane®,
# and on day 29 and day 30 each 1500 mg Cardioxane®.
# The psoriatic rash appeared on the hairy part of the head and neck to spread further over the body. The patient received insolation with but a temporary effect. The patient had had 4 hospitalisations to receive therapy with vitamins, calcium, and various ointments.
# At the first examination on day 1 the patient presented with continuous erythematous papular psoriatic rash with desquamation on the front abdominal wall (below the submammal fold), the inguioileac, the lumbosacral, the gluteal regions and the lower limbs, severe itch, and scraping tubular breathing (asthmatic bronchitis). Of note was also a marked increase in the eosinophile count.
# The patient received 6 intravenous drip injections of Cardioxane® according to the protocol given in Example 2. […] The lower half of the abdomen as well as the upper gluteal quadrants were practically free of rash.
# [4] = pH of reconstituted and diluted Cardioxane solution for infusion; format: physicochemical
# Method: Cardioxane® is available in 36 ml brown glass vials. Each vial contains 500 mg lyophilised active substance, the hydrochloric acid salt of dexrazoxane. For reconstitution the contents of each vial is dissolved in 25 ml sterile water for injection. The contents will dissolve within a few minutes under gentle agitation. The pH of the resulting solution is approx. pH 1.6.
# For infusion the solution needs to be further diluted. Preferred are sodium lactate UP (0.16M) or Ringer-Lactate BP for infusion. Both solutions give an infusion fluid with an acceptable pH.
# refractory psoriasis [5] = assay: Clinical study of efficacy of dexrazoxane in patients with refractory psoriasis, Psoriasis Area and Severity Index (Example 4); format: in vivo, human
# Method: as §1, §2, §3
# The primary efficacy parameter was the percentage reduction in skin area and severity affected by psoriasis, as determined by the standardised assessment of the Psoriasis Area and Severity Index (PASI).
# Seven patients have been enrolled in the study and all patients have completed a follow-up period of two weeks. At the beginning of the treatment, the PASI-scores ranged between 23.1 and 44.1, with a mean score of 31.9. […] At the end of the third treatment cycle, the PASI-scores ranged between 3.4 and 29.7, with a mean score of 11.4.
# refractory psoriasis [6] = assay: Separate longer study of three patients with refractory psoriasis; format: in vivo, human
# Excerpt: This patient, who previously suffered distressing refractory psoriasis, can be treated with conventional emollients. Dexrazoxane therefore has the potential to provide remarkable long term relief from refractory psoriasis and a low level of side effects.
# [7] = British Journal of Dermatology (1980) 102, 307
# [8] = Example 3 patient, examination on day 30
# [9] = at 11 weeks after the start of the therapy
# [10] = patients of the clinical trial (general statement)
compound,measurement,setting,value
"CC(CN1CC(=O)NC(=O)C1)N1CC(=O)NC(=O)C1 (racemic) [razoxane, 1,2-bis(3,5-dioxopiperazin-1-yl)-propane]",efficacy in psoriasis,psoriasis [1]; [7],relatively good efficacy
same,tolerability in psoriasis patients,psoriasis [1]; [7],good tolerability
same,most frequently seen side effect,"psoriasis [1]; Horton and Wells, British Journal of Dermatology (1983) 109, 669-673",neutropenia
CC(CN1CC(=O)NC(=O)C1)N1CC(=O)NC(=O)C1 (stereo not drawn) [Cardioxane],leukocyte count in the patient with leukopenia,[2],approximately 3×10E9 cells per liter
same,leukopenia incidence,[2],"only one was diagnosed with mild, reversible leukopenia"
same,serious adverse events,[2],no serious adverse events were reported
same,toxicity grade according to World Health Organisation criteria,[2],grade I
same,"vomiting, nausea, or diarrhoea",[2],"No cases of vomiting, nausea, or diarrhoea were recorded"
same,arthralgia,"psoriasis [3]; Example 1 patient, after 1000 mg dose on day 16",complete disappearance of anthralgia
same,adverse events,"psoriasis [3]; Example 1 patient, after any of the injections (500, 1000, 1500 mg)",no adverse events
same,itch,"psoriasis [3]; Example 1 patient, 500 mg i.v. on days 1 and 2",amelioration of itch several hours after the first
same,side effects,"psoriasis [3]; Example 2 patient, 6 i.v. drip injections 500-1500 mg",no side effects
same,erythema,"psoriasis [3]; Example 2 patient, examination on day 15 and day 29",mild amelioration of erythema on the back
same,skin itch,"psoriasis [3]; Example 3 patient, at 2 or 3 days after the first injection",complete disappearance of skin itch
same,adverse events,"psoriasis [3]; Example 3 patient, examination on day 15",no adverse events
same,adverse events,psoriasis [3]; [8],No adverse events were reported
same,complete regression of the rash,psoriasis [3]; [8],about 80%
same,pH of the resulting solution,[4]; 500 mg vial dissolved in 25 ml sterile water for injection,~1.6
same,pH,"[4]; 4 reconstituted vials diluted with 100 ml Ringer-Lactate BP, total 200 ml",2.14
same,pH,"[4]; 4 reconstituted vials diluted with 100 ml Sodium lactate UP (0.16 M), total 200 ml",3.80
same,pH,"[4]; 4 reconstituted vials diluted with 300 ml Ringer-Lactate BP, total 400 ml",2.85
same,pH,"[4]; 4 reconstituted vials diluted with 300 ml Sodium lactate UP (0.16 M), total 400 ml",4.47
same,pH,"[4]; 4 reconstituted vials diluted with 400 ml Ringer-Lactate BP, total 500 ml",3.19
same,pH,"[4]; 4 reconstituted vials diluted with 500 ml Ringer-Lactate BP, total 600 ml",3.45
same,pH,"[4]; 4 reconstituted vials diluted with 500 ml Sodium lactate UP (0.16 M), total 600 ml",4.66
same,maximum reduction in PASI,refractory psoriasis [5]; [9],88%
same,mean reduction in PASI,refractory psoriasis [5]; [9],65%
same,relief of symptoms associated with psoriatic arthritis,refractory psoriasis [5]; compared to treatment with cyclosporine A used previously in the clinic,better and faster relief
same,remission,refractory psoriasis [5]; one month after the last injection,most of the patients are still in remission
same,PASI score,"refractory psoriasis [5]; patient 1/HH, visit v1 (start of treatment)",23.1
same,PASI score,"refractory psoriasis [5]; patient 1/HH, visit v4",11.3
same,PASI score,"refractory psoriasis [5]; patient 1/HH, visit v7",7.7
same,PASI score,"refractory psoriasis [5]; patient 1/HH, visit v9",6.5
same,PASI score,"refractory psoriasis [5]; patient 1/HH, visit v10",6.5
same,PASI score,"refractory psoriasis [5]; patient 1/HH, visit v11",5.6
same,PASI score,"refractory psoriasis [5]; patient 2/MR, visit v1 (start of treatment)",43.6
same,PASI score,"refractory psoriasis [5]; patient 2/MR, visit v4",36.3
same,PASI score,"refractory psoriasis [5]; patient 2/MR, visit v7",23.1
same,PASI score,"refractory psoriasis [5]; patient 2/MR, visit v9",15.6
same,PASI score,"refractory psoriasis [5]; patient 2/MR, visit v10",12.3
same,PASI score,"refractory psoriasis [5]; patient 2/MR, visit v11",14.0
same,PASI score,"refractory psoriasis [5]; patient 3/MZ, visit v1 (start of treatment)",29.8
same,PASI score,"refractory psoriasis [5]; patient 3/MZ, visit v4",18.4
same,PASI score,"refractory psoriasis [5]; patient 3/MZ, visit v7",11.6
same,PASI score,"refractory psoriasis [5]; patient 3/MZ, visit v9",9.7
same,PASI score,"refractory psoriasis [5]; patient 3/MZ, visit v10",7.1
same,PASI score,"refractory psoriasis [5]; patient 3/MZ, visit v11",6.5
same,PASI score,"refractory psoriasis [5]; patient 4/PH, visit v1 (start of treatment)",27.0
same,PASI score,"refractory psoriasis [5]; patient 4/PH, visit v4",18.6
same,PASI score,"refractory psoriasis [5]; patient 4/PH, visit v7",13.5
same,PASI score,"refractory psoriasis [5]; patient 4/PH, visit v9",10.8
same,PASI score,"refractory psoriasis [5]; patient 4/PH, visit v10",12.0
same,PASI score,"refractory psoriasis [5]; patient 4/PH, visit v11",5.2
same,PASI score,"refractory psoriasis [5]; patient 5/PZ, visit v1 (start of treatment)",29.1
same,PASI score,"refractory psoriasis [5]; patient 5/PZ, visit v4",16.9
same,PASI score,"refractory psoriasis [5]; patient 5/PZ, visit v7",9.9
same,PASI score,"refractory psoriasis [5]; patient 5/PZ, visit v9",9.3
same,PASI score,"refractory psoriasis [5]; patient 5/PZ, visit v10",7.8
same,PASI score,"refractory psoriasis [5]; patient 5/PZ, visit v11",3.4
same,PASI score,"refractory psoriasis [5]; patient 6/FJ, visit v1 (start of treatment)",44.1
same,PASI score,"refractory psoriasis [5]; patient 6/FJ, visit v4",24.8
same,PASI score,"refractory psoriasis [5]; patient 6/FJ, visit v7",20.3
same,PASI score,"refractory psoriasis [5]; patient 6/FJ, visit v9",15.6
same,PASI score,"refractory psoriasis [5]; patient 6/FJ, visit v10",15.6
same,PASI score,"refractory psoriasis [5]; patient 6/FJ, visit v11",15.3
same,PASI score,"refractory psoriasis [5]; patient 7/DJ, visit v1 (start of treatment)",26.6
same,PASI score,"refractory psoriasis [5]; patient 7/DJ, visit v4",23.6
same,PASI score,"refractory psoriasis [5]; patient 7/DJ, visit v7",23.0
same,PASI score,"refractory psoriasis [5]; patient 7/DJ, visit v9",21.8
same,PASI score,"refractory psoriasis [5]; patient 7/DJ, visit v10",28.5
same,PASI score,"refractory psoriasis [5]; patient 7/DJ, visit v11",29.7
same,mean PASI score at the end of the third treatment cycle,"refractory psoriasis [5]; seven patients, end of third treatment cycle",11.4
same,response to the treatment,"refractory psoriasis [5]; seven patients, one patient absolutely resistant",Most of the patients did respond to the treatment
"CC(CN1CC(=O)NC(=O)C1)N1CC(=O)NC(=O)C1 (stereo not drawn) [dexrazoxane, d-isomer of 1,2-bis(3,5-dioxopiperazin-1-yl)-propane]",serious side effects,[2],No serious side effects have been reported
same,duration of relief from refractory psoriasis,refractory psoriasis [6]; some patients (summary statement),up to at least one year
same,long term freedom from lesions and symptoms,"refractory psoriasis [6]; three patients with refractory psoriasis, after one year",one patient is still relatively free of lesions and symptoms after one year
same,itch,psoriasis [3]; [10],diminished several hours after the first administration
same,regression of the skin lesions,psoriasis [3]; [10],25-30%
